# Assay results reported in paper PMC8899516, “Structure-Activity Relationship Studies of 4-((4-(2-fluorophenyl)piperazin-1-yl)methyl)-6-imino-N-(naphthalen-2-yl)-1,3,5-triazin-2-amine (FPMINT) Analogues as Inhibitors of Human Equilibrative Nucleoside Transporters” (Frontiers in Pharmacology, 2022).
# How the values were obtained:
# ENT2 [1] = target: T1, ENT2 (Homo sapiens, UniProt Q14542); test: Kinetic study of [3H]uridine uptake in PK15NTD/ENT2 cells; type: cell-based
# T1 construct: expressed in transfected cells
# T1 sequence (Q14542 1-456): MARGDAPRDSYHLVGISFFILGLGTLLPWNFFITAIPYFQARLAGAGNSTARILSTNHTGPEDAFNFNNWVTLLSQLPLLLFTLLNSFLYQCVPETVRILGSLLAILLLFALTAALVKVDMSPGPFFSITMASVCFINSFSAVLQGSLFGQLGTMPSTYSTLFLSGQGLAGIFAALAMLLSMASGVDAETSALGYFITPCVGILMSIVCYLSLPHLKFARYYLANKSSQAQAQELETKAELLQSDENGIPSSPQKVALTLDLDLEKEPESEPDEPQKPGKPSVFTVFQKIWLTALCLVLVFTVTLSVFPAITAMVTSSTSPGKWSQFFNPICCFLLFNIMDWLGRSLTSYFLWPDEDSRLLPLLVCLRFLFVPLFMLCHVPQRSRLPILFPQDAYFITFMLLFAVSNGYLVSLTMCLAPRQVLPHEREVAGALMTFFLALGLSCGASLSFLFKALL
# Protocol: Nucleoside transporter-deficient porcine kidney fibroblast cells (PK15NTD) stably transfected with cloned human ENT1 or ENT2 ([Ward et al., 2000]) were used as the in vitro models. The cells were cultured in Dulbecco’s Modified Eagle’s Medium (DMEM) supplemented with 10% (v/v) foetal bovine serum, 0.5 mg/ml geneticin, 100 units/ml penicillin, 100 μg/ml streptomycin and 0.25 μg/ml of amphotericin B at 37°C in 5% CO2/95% air.
# Confluent monolayers of PK15NTD/ENT1 and PK15NTD/ENT2 cells in 24-well plates were washed thrice with HEPES-buffered Ringer’s solution containing (mM): 135 NaCl, 10 glucose, 5 KCl, 5 HEPES, 3.33 NaH2PO4, 1.0 CaCl2, 1.0 MgCl2, 0.83 Na2HPO4; pH 7.4. The cells were incubated with different concentrations of FPMINT analogues (from 10 nM to 100 μM) containing [^3H]uridine (2 μCi/ml, 1 μM) for 1 min. Passive uridine uptake was determined by incubating the cells in HEPES-buffered Ringer’s solution containing [^3H]uridine in the presence of 0.5 mM NBMPR. The cells were rapidly washed five times with ice-cold phosphate-buffered saline (PBS). After air-drying, the cells were solubilised by overnight incubation in 500 μl of 5% Triton-X100. Next, 300 μl of the cell lysates were mixed with 2 ml of scintillation liquid. The radioactivity of each sample was quantified by a scintillation counter. The protein content in each well was determined spectrophotometrically using a commercial bicinchoninic acid assay (Pierce Biochemicals, Rockford, IL). Uptake values were expressed as picomoles of [^3H]uridine per milligram of cellular protein per minute.
# All data were analysed by GraphPad Prism software (San Diego, CA, United States). Data are expressed as mean ± standard error (SE) of three experiments performed in triplicate. The IC50 values were determined from the dose-response curves fitted with a logistic function. For the kinetic study of [^3H]uridine uptake, apparent K m and V max values were determined from the Michaelis-Menten equation, and K i was determined from the X-intercept of linear regression. Analysis of variance and Student’s t-test were performed for multiple and paired variables, respectively. p values of <0.05 were considered to be statistically significant.
# Compound 3c was selected for further investigation. The kinetic study of [^3H]uridine transport was performed by measuring the concentration-dependent uptake of [^3H]uridine. This study could provide clue about the mode of action of compound 3c. The uptake of [^3H]uridine by ENT1 and ENT2 was saturable and conformed to Michaelis-Menten kinetics. Compound 3c decreased the V max of ENT1 but had no effect on K m . […] The slopes of the linear 1/V versus 1/[S] plots increased with the concentration of compound 3c (Figure 4B).
# FIGURE 4 Competitive inhibition of ENT1 and ENT2 by compound 3c. Kinetic study of [^3H]uridine uptake (0.1 μM–1 mM) was measured in (A) PK15NTD/ENT1 and (D) PK15NTD/ENT2 cells in the presence of various concentrations of compound 3c (0, 0.01, 0.1, 1 and 10 µM) (B,E) 1/V versus 1/[S] plots of each curve in (A) and (D), respectively (C,F) The plot of slopes of each line in (B) and (E), respectively, versus the concentration of compound 3c. Data are presented as mean ± SE of three experiments.
# ENT2 [2] = target: T1, ENT2; test: Wash-out reversibility of [3H]uridine uptake inhibition in PK15NTD/ENT2 cells; type: cell-based; conditions: 50 µM, incubation 1–60 min, washed five times
# Protocol: To determine whether the inhibitory effects of compound 3c were reversible or irreversible, PK15NTD/ENT1 and PK15NTD/ENT2 cells were incubated with 50 µM of compound 3c for different time periods (1–60 min). The cells were then washed five times with buffer. After wash-out for every single time [^3H]uridine uptake was measured. […] The longer the incubation time with compound 3c, the more difficult it was to wash-out the inhibitory effects of compound 3c.
# FIGURE 6 Reversibility of the inhibitory effects of compound 3c on ENT1 and ENT2 (A) PK15NTD/ENT1 and (B) PK15NTD/ENT2 cells were incubated with 50 μM of compound 3c or a vehicle (0.5% DMSO, as a control) for different time (0–60 min) The cells were then washed five times. After wash-out for every single time [^3H]uridine uptake (1 μM, 2 μCi/ml) was measured. Data are presented as mean ± SE of three experiments. ^* p < 0.05 compared with the fifth wash.
structure (smiles),measurement,setting,value
Cc1cccc(Nc2nc(N)nc(CN3CCN(c4ccc(F)cc4)CC3)n2)c1 [Compound 3c],apparent Vmax of ENT2,ENT2 [1]; 0.01 µM compound 3c,1775 ± 76.83 pmol/mg protein/min
same,apparent Vmax of ENT2,ENT2 [1]; 0.1 µM compound 3c,1295 ± 78.09 pmol/mg protein/min
same,apparent Vmax of ENT2,ENT2 [1]; 1 µM compound 3c,918.6 ± 47.48 pmol/mg protein/min
same,apparent Vmax of ENT2,ENT2 [1]; 10 µM compound 3c,534.6 ± 28.21 pmol/mg protein/min
same,mode of inhibition of ENT2-mediated uridine transport,"ENT2 [1]; decreased Vmax, apparent Km unchanged",non-competitive inhibitor
same,Ki,ENT2 [1]; x-intercept of slopes versus concentration plot,540 nM
same,reversibility of inhibitory effect on ENT2 by washing,ENT2 [2],only partially reversed by washing
